Consider nine molecules from publication PMC9143821, “Design and Synthesis of a Novel 4-aryl-N-(2-alkoxythieno [2,3-b]pyrazine-3-yl)-4-arylpiperazine-1-carboxamide DGG200064 Showed Therapeutic Effect on Colon Cancer through G2/M Arrest” (Pharmaceuticals, 2022).

Where a SMILES comes first, the peptide text is derived from it. The star is where a group is joined. Cbz = O=C(OCc1ccccc1)* Some results are limits rather than exact numbers.

The subject of one data set is HCT116. Nature of the data set: SRB assay, colon cancer cell growth inhibition. It counts as cell-based. The settings on record: Homo sapiens, HCT-116. The method, then: (§1) A series of 4-phenyl-N-(thieno[2,3-b]pyrazin-3-yl)piperazine-1-carboxamides derivatives 7a–7i were tested for the colon cancer cell growth inhibition effect using the SRB assay (Table 2). […] Compounds 7a and 7b, containing chlorine at the C6 position of thieno[2,3-b]pyrazine ring, have weaker anticancer activity than its proton-containing derivatives 7c–7i. On the other hand, 7c has shown higher inhibition activity than 7d with methyl substituents at the C3 and C5 positions of the phenyl ring. […] Substitutions with one fluorine atom in the phenyl ring could not improve the inhibition effect of the compounds 7g–7h.
(§2) The HCT116, HCT8, KM12, HCT15, HT29, COLO-205, SW620 cell line was obtained from the National Cancer Institute (Material Transfer Agreement number: 2702–09). DLD1 cell line was obtained from the Korean cell line bank. Cells were cultured in complete Roswell Park Memorial Institute (RPMI) 1640 medium (Hyclone, South Logan, UT, USA) containing 10% fetal bovine serum (Hyclone, South Logan, UT, USA) in an atmosphere of 5% CO2 and 100% humidity at 37 °C. A small interfering RNA (siRNA) duplex targeting human c-Jun and FBXW7 (Genolution, Seoul, Korea) were introduced into cells using Lipofector-EXT (AptaBio, Yongin, Korea), according to the manufacturer’s instructions. As negative controls, cells were incubated with Lipofector-EXT (AptaBio, Yongin, KOR) and a negative siRNA (Genolution, Seoul, Korea).
(§3) Cells (100 μL containing 5000–10,000 cells/well) were incubated in 96 well microtiter plates. After 24 h, drugs were added (100 μL) to each well and the cultures were incubated for 48 h at 37 °C. The cells were then fixed in TCA (50 μL per well). The plates were incubated for a minimum of 1 h or a maximum of 3 h at 4 °C. The liquid was removed from the plate, which was then rinsed five times with water and allowed to dry at room temperature (rt) for approximately 12–24 h. The fixed cells were stained with 100 μL Sulforhodamine B (SRB) solution for 5 min at rt. After staining, the plate was washed three times with 1% glacial acetic acid and dried at rt for approximately 12–24 h. The SRB was then solubilized in 10 mM Tris buffer, and the absorbance was read at 515 nm. The effect of the drugs was expressed as GI50 (50% growth inhibition).
On the technique in general: Sulforhodamine B stains cellular protein and so reports cell mass.

The test system of a further data set is HCT8. Nature of the data set: SRB assay, colon cancer cell growth inhibition. It counts as cell-based. The following applies: Homo sapiens, HCT-8, 48 h. On the procedure: as §1, §2, §3
The subject of the next data set is HT29. Nature of the data set: SRB assay, colon cancer cell growth inhibition. The settings on record: Homo sapiens, HT-29, 48 h. Type of data set: cell-based. On the procedure:
as §1, §2, §3

A further data set relates to KM12. Nature of the data set: SRB assay, colon cancer cell growth inhibition. The settings on record: Homo sapiens, 48 h. Type of data set: cell-based. The method, then: as §1, §2, §3
The subject of another data set is HCT15. Nature of the data set: SRB assay, colon cancer cell growth inhibition. Type of data set: cell-based. The settings on record: Homo sapiens, HCT-15, 48 h. On the procedure: as §1, §2, §3
A further data set deals with SW620. Nature of the data set: SRB assay, colon cancer cell growth inhibition. It counts as cell-based. The following applies: Homo sapiens, SW-620, 48 h. On the procedure: as §1, §2, §3
A further data set deals with Colo205. In words: SRB assay, colon cancer cell growth inhibition. Type of data set: cell-based. The following applies: Homo sapiens, COLO 205, 48 h. On the procedure: as §1, §2, §3
A short description of data set [1]: Pharmacokinetics in SD rats. The settings on record: male, Sprague-Dawley, rat, plasma. Type of data set: in vivo. On the procedure:
Sprague–Dawley rats (adult males, 250–300 g) were fasted overnight, and the femoral vein (for iv administration of the compound) and jugular vein (for blood sampling) of each rat were cannulated with polyethylene tubing. The selected compounds dissolved in 30% polyethylene glycol (PEG) in saline were administered either intravenously or orally. At various time points after administration, blood samples (0.5 mL) were collected from the jugular vein, transferred to heparin-coated tubes, centrifuged to separate off the plasma. The plasma was stored at −80 °C until assayed. Compound concentrations in plasma were determined by LC/MS/MS analysis (API4000 mass spectrometer, Applied Biosystem, Waltham, MA, USA). Pharmacokinetic parameters were analyzed using the WinNonlin software program. The area under the curve (AUC) was calculated using the trapezoidal rule extrapolated to infinity. The terminal elimination half-life, systemic clearance, and volume of distribution at steady state were determined. The extent of absolute oral bioavailability (F) was estimated by comparing the AUC values after intravenous and oral administration of the compounds.

A further data set concerns FBXW7/c-Jun interaction. Nature of the data set: Immunoprecipitation, ubiquitination and FBXW7/c-Jun interaction. It counts as cell-based, human. The following applies: HCT116 and DLD1; DGG200064 50 nM 18 h; MG132 10 μM 6 h. An excerpt:
To investigate whether the ubiquitination of c-Jun is suppressed through the inhibition of c-Jun and FBXW7 binding by DGG200064, c-Jun immunoprecipitation was done to observe protein–protein interaction (Figure 4). E3 ligase, such as FBXW7, binds the protein to the ubiquitin chain through covalent bonds and rapidly degrades the protein through 26S proteasome. When treated with MG132 as a proteasome inhibitor, the ubiquitination of c-Jun increased compared to both control HCT116 and DLD1 cells. In contrast, the c-Jun ubiquitination was inhibited by DGG200064. The binding between c-Jun and FBXW7 was reduced with DGG200064 treatment. The FBXW7 protein, also known as CDC4, is a component of the SCF complex ubiquitin ligase and is known as a modulator of several substrates including cyclin E, c-Myc, c-Jun, and Notch. To check the selectivity of DGG200064 towards FBXW7 substrates, the change of c-Jun, cyclin E, and c-Myc by DGG200064 was analyzed. […] Cyclin E immunoprecipitation was done to test whether the ubiquitination of cyclin E by FBXW7 is inhibited by DGG200064 in HCT116 (Figure S2b, Supplementary Materials). There were no changes in cyclin E ubiquitination with DGG200064 treatment.
To identified ubiquitination of c-Jun by DGG200064, HCT116 cells were treated with/without MG132 (10 μM) for 6h, DGG200064 (50 nM) for 18 h. The cell lysate was prepared using RIPA buffer for immunoprecipitation. Each lysate was mixed with antibodies (1 μg/mL) of c-Jun or MYC at 4 °C overnight in immunoprecipitation buffer containing 50 mM Tris-Cl,150 mM NaCl, 1 mM EDTA, 0.5% Triton X-100, pH 7.4, and reacted with 10 μL of protein A/G beads UltraLink Resin (50:50 resin: buffer slurry condition) (Peirce, #35133) for 2 h on RT for precipitation. After reaction and centrifugation at 3000 rpm for 3 min, the immunoprecipitated samples were washed with 500 μL of immunoprecipitation buffer by tapping and centrifuged. The washing was repeated five times before western blotting.

Where [2] appears, read: quoted in docking discussion, cell line not stated there (values match HCT116).

What is called GI50 is the concentration giving 50% growth inhibition. Turning to `COc1nc2ccsc2nc1NC(=O)N1CCN(c2cc(F)cc(F)c2)CC1` [Compound 7e, 4-(3,5-Difluorophenyl)-N-(2-methoxythieno[2,3-b]pyrazin-3-yl)piperazine-1-carboxamide], the 50% growth inhibitory concentration (GI50) is 307 nM with HCT116 (HCT116, SRB, 48 h); no less than 100 nM in the data set on HCT116 (setting [2]); 269 nM in the data set with HCT8; 672 nM in the data set with HT29; 426 nM in the data set with KM12; 507 nM in the data set with HCT15. The figures for the GI50 with SW620 and in the data set with Colo205 were 288 nM and 287 nM, respectively.
In the case of `COc1cc(F)cc(N2CCN(C(=O)Nc3nc4sccc4nc3OC)CC2)c1` [Compound 7g, 4-(3-Fluoro-5-methoxyphenyl)-N-(2-methoxythieno[2,3-b]pyrazin-3-yl)piperazine-1-carboxamide], the GI50 worked out at 45 nM in the data set on HCT116 (HCT116, SRB, 48 h); 39 nM with HCT8; 57 nM in the data set on HT29; 22 nM in the data set on KM12; 30 nM with HCT15; 29 nM with SW620. Moreover, the GI50 in the data set on Colo205 is 14 nM.
Consider `COc1nc2ccsc2nc1NC(=O)N1CCN(c2cc(C)cc(F)c2)CC1` [Compound 7h, 4-(3-Fluoro-5-methylphenyl)-N-(2-methoxythieno[2,3-b]pyrazin-3-yl)piperazine-1-carboxamide], for which the GI50 in the data set with HCT116 (HCT116, SRB, 48 h) came to 32 nM; in the data set on HCT8, 51 nM; with HT29, 29 nM; with KM12, 38 nM; in the data set on HCT15, 42 nM; in the data set on SW620, 40 nM. Moreover, the GI50 in the data set with Colo205 is 28 nM.
With `COc1cc(OC)cc(N2CCN(C(=O)Nc3nc4sc(Cl)cc4nc3OC)CC2)c1` [Compound 7a, N-(6-chloro-2-methoxythieno[2,3-b]pyrazin-3-yl)-4-(3,5dimethoxyphenyl)piperazine-1-carboxamide], the GI50 with HCT116 (HCT116, SRB, 48 h) was 344 nM; in the data set on HCT116 (setting [2]) it was no less than 100 nM; with HCT8 it was 761 nM; in the data set with HT29 it was 408 nM; with KM12, 273 nM; in the data set with HCT15 it was 484 nM. For the same molecule, the GI50 with SW620 came to 427 nM; in the data set on Colo205, 173 nM.
Broadly, the Cmax is the peak of the concentration-time curve. Broadly, the bioavailability is dose-corrected exposure relative to a reference, in per cent. Consider `COc1cc(C)cc(N2CCN(C(=O)Nc3nc4sccc4nc3OC)CC2)c1` [Compound 7f, 4-(3-methoxy-5-methylphenyl)-N-(2-methoxythieno[2,3-b]pyrazin-3-yl)piperazine-1-carboxamide], for which the GI50 was 1.9 nM in the data set with HCT116 (HCT116, SRB, 48 h); 37 nM in the data set on HCT8; 21 nM in the data set on HT29; 21 nM in the data set with KM12; 36 nM with HCT15; 34 nM in the data set on SW620. In the data set with Colo205, this molecule yielded a GI50 of 28 nM. The same molecule came in with a Cmax in [1] (no unit, species or route stated in b12 (7c value equals SD rats PO of Table 3)) of 195 ng/mL. Also, the bioavailability in [1] (species and route not stated in b12 (7c value equals SD rats PO of Table 3), read-out: bioavailability (F)) was 21.8%.
Turning to `CC(C)C[C@@H](C=O)NC(=O)[C@H](CC(C)C)NC(=O)[C@H](CC(C)C)NC(=O)OCc1ccccc1` [MG132, reference compound] (Cbz-Leu-Leu-Leu-aldehyde), in the data set on FBXW7/c-Jun interaction, the c-Jun ubiquitination result is reported as “increased”.
For `CCOc1nc2ccsc2nc1NC(=O)N1CCN(c2cc(OC)cc(OC)c2)CC1` [Compound 7i, 4-(3,5-dimethoxyphenyl)-N-(2-ethoxythieno[2,3-b]pyrazin-3-yl)piperazine-1-carboxamide], the 50% growth inhibitory concentration (GI50) was found to be 71 nM with HCT116 (HCT116, SRB, 48 h); 58 nM with HCT8; 35 nM in the data set with HT29; 74 nM with KM12; 68 nM in the data set with HCT15; 53 nM in the data set with SW620. Besides, it took 35 nM to inhibit growth in the data set with Colo205 by half (GI50).
For the molecule `COc1nc2ccsc2nc1NC(=O)N1CCN(c2cc(C)cc(C)c2)CC1` [Compound 7d, 4-(3,5-Dimethylphenyl)-N-(2-methoxythieno[2,3-b]pyrazin-3-yl)piperazine-1 carboxamide], the GI50 with HCT116 (HCT116, SRB, 48 h) worked out at 33 nM; in the data set on HCT8, 59 nM; in the data set with HT29, 26 nM; in the data set with KM12 it was 32 nM; in the data set with HCT15, 38 nM; with SW620, 38 nM. The molecule also returned a concentration for 50% growth inhibition (GI50) with Colo205 of 40 nM.
Regarding `COc1nc2cc(Cl)sc2nc1NC(=O)N1CCN(c2cc(C)cc(C)c2)CC1` [Compound 7b, N-(6-chloro-2-methoxythieno[2,3-b]pyrazin-3-yl)-4-(3,5-dimethylphenyl)piperazine-1-carboxamide], the GI50 was 244 nM in the data set with HCT116 (HCT116, SRB, 48 h); 900 nM with HCT8; 342 nM in the data set on HT29; 244 nM in the data set with KM12; 437 nM with HCT15; 273 nM with SW620. The GI50 in the data set with Colo205 turned out to be 900 nM.
